biological target: T1, human LMPTP-A (Homo sapiens, UniProt P24666); experiment: Enzyme Assay of Inhibition of LMPTP-A; format: biochemical; settings: phosphatase assay, OMFP or pNPP substrate, 50 mM Bis-Tris pH 6.0, 37° C.
T1 sequence (P24666 1-158): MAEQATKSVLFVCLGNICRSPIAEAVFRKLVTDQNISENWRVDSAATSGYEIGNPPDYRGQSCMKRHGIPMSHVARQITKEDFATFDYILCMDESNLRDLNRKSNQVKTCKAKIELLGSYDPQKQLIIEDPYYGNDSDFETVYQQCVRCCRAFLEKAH
Method in brief: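 Recombinant human LMPTP-A in 50 mM Bis-Tris pH 6.0, 1 mM DTT, 0.01% Triton X-100 at 37° C. Substrate OMFP read continuously by fluorescence (485/525 nm), or pNPP stopped with NaOH and read at 405 nm. IC50 taken from inhibitor concentration versus % activity plots.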

`Cn1ncc(Br)c1Cn1cnc(N)c2ncnc1-2` [3-[(4-bromo-1-methylpyrazol-5-yl)methyl]-3-hydropurine-6-ylamine] and `COC(=O)c1cccc(Cl)c1Cn1cnc(N)c2ncnc1-2` [2-(6-Amino-purin-3-ylmethyl)-3-chloro-benzoic acid methyl ester] cannot be ordered by IC50: ≤ 1 µM for the first, ≤ 1 µM for the second.

`FC(F)Oc1ccc(Nc2ncn(Cc3c(Cl)cccc3Cl)c3ncnc2-3)cc1` [3-(2,6-Dichlorobenzyl)-N-(4-(difluoromethoxy)phenyl)-3H-purin-6-amine] and `Nc1ncn(Cc2ccccc2Cl)c2ncnc1-2` [3-(2-Chloro-benzyl)-3H-purin-6-ylamine] fall in the same range of IC50: 1 to 20 µM for the first, 1 to 20 µM for the second.

`Cc1cccc(C)c1Cn1cnc(NCc2ccco2)c2ncnc1-2` [3-(2,6-Dimethylbenzyl)-n-(furan-2-ylmethyl)-3h-purin-6-amine] and `Cc1ccc(-c2nc3c(N)ncn(Cc4c(Cl)cccc4Cl)c-3n2)cc1` [3-[(2,6-Dichlorophenyl)methyl]-8-(4-methylphenyl)-3-hydropurine-6-ylamine] cannot be ordered by IC50: 1 to 20 µM for the first, ≤ 1 µM for the second.

`COc1ccccc1Cn1cnc(NCc2ccco2)c2ncnc1-2` [Furan-2-ylmethyl-[3-(2-methoxy-benzyl)-3H-purin-6-yl]-amine] and `Clc1cccc(Cl)c1Cn1cnc(Nc2cccc(OCc3ccccc3)c2)c2ncnc1-2` [N-(3-(benzyloxy)phenyl)-3-(2,6-dichlorobenzyl)-3H-purin-6-amine] cannot be ordered by IC50: ≥ 20 µM for the first, 1 to 20 µM for the second.

`Nc1ncn(Cc2c(Cl)cccc2Cl)c2nc(-c3ccccc3Cl)nc1-2` [3-[(2,6-Dichlorophenyl)methyl]-8-(2-chlorophenyl)-3-hydropurine-6-ylamine] and `O=C(Nc1ncn(Cc2c(Cl)cccc2Cl)c2ncnc1-2)c1ccncc1` [N-[3-(2,6-Dichloro-benzyl)-3H-purin-6-yl]-isonicotinamide] cannot be ordered by IC50: ≤ 1 µM for the first, ≤ 1 µM for the second.

`Cc1cccc(Nc2ncn(Cc3c(Cl)cccc3Cl)c3ncnc2-3)c1C` [{3-[(2,6-Dichlorophenyl)methyl](3-hydropurin-6-yl)}(2,3-dimethylphenyl)amine] and `Fc1cccc(Cl)c1Cn1cnc(NCc2ccco2)c2ncnc1-2` [[3-(2-Chloro-6-fluoro-benzyl)-3H-purin-6-yl]-furan-2-ylmethyl-amine] fall in the same range of IC50: 1 to 20 µM for the first, 1 to 20 µM for the second.

Going from `Fc1ccccc1Cn1cnc(NCc2ccco2)c2ncnc1-2` [[3-(2-Fluoro-benzyl)-3H-purin-6-yl]-furan-2-ylmethyl-amine] to `Cc1nc2c(N)ncn(Cc3c(Cl)cccc3Cl)c-2n1` [3-[(2,6-Dichlorophenyl)methyl]-8-methyl-3-hydropurine-6-ylamine], the IC50 falls from ≥ 20 µM to ≤ 1 µM. The second is the more potent here.

`O=C(O)c1ccc(Nc2ncn(Cc3c(Cl)cccc3Cl)c3ncnc2-3)cc1` [4-({3-[(2,6-Dichlorophenyl)methyl]-3-hydropurin-6-yl}amino)benzoic acid] and `N#Cc1ccccc1-c1nc2c(N)ncn(Cc3c(Cl)cccc3Cl)c-2n1` [2-{6-Amino-3-[(2,6-dichlorophenyl)methyl]-3-hydropurin-8-yl}benzenecarbonitrile] cannot be ordered by IC50: 1 to 20 µM for the first, ≤ 1 µM for the second.

`FC(F)(F)Oc1cccc(Nc2ncn(Cc3c(Cl)cccc3Cl)c3ncnc2-3)c1` [3-(2,6-Dichlorobenzyl)-N-(3-(trifluoromethoxy)phenyl)-3H-purin-6-amine] and `Clc1ccc(CNc2ncn(Cc3c(Cl)cccc3Cl)c3ncnc2-3)cc1` [N-(4-chlorobenzyl)-3-(2,6-dichlorobenzyl)-3h-purin-6-amine] fall in the same range of IC50: 1 to 20 µM for the first, 1 to 20 µM for the second.

`Nc1ncn(Cc2c(Cl)cccc2Cl)c2nc(-c3ccc(Cl)cc3)nc1-2` [3-[(2,6-Dichlorophenyl)methyl]-8-(4-chlorophenyl)-3-hydropurine-6-ylamine] and `Nc1ncn(Cc2c(Cl)cccc2Cl)c2nc(C3=CCCCC3)nc1-2` [3-[(2,6-Dichlorophenyl)methyl]-8-cyclohex-1-enyl-3-hydropurine-6-ylamine] cannot be ordered by IC50: ≤ 1 µM for the first, ≤ 1 µM for the second.

`Fc1cccc(Nc2ncn(Cc3c(Cl)cccc3Cl)c3ncnc2-3)c1` [{3-[(2,6-Dichlorophenyl)methyl](3-hydropurin-6-yl)}(3-fluorophenyl)amine] and `CN(C)c1ccc(Nc2ncn(Cc3c(Cl)cccc3Cl)c3ncnc2-3)cc1` [N1-(3-(2,6-dichlorobenzyl)-3H-purin-6-yl)-N4,N4-dimethylbenzene-1,4-diamine] fall in the same range of IC50: 1 to 20 µM for the first, 1 to 20 µM for the second.

`Nc1ncn(Cc2ccc(Cl)s2)c2ncnc1-2` [3-((5-chlorothiophen-2-yl)methyl)-3H-purin-6-amine] and `Fc1ccccc1CNc1ncn(Cc2c(Cl)cccc2Cl)c2ncnc1-2` [[3-(2,6-Dichloro-benzyl)-3H-purin-6-yl]-(2-fluoro-benzyl)-amine] fall in the same range of IC50: 1 to 20 µM for the first, 1 to 20 µM for the second.

`Nc1ncn(Cc2c(Cl)cccc2Cl)c2nc(Br)nc1-2` [3-[(2,6-Dichlorophenyl)methyl]-8-bromo-3-hydropurine-6-ylamine] and `Nc1ncn(Cc2ccc3ccccc3n2)c2ncnc1-2` [3-(quinolin-2-ylmethyl)-3H-purin-6-amine] fall in the same range of IC50: 1 to 20 µM for the first, 1 to 20 µM for the second.

`Nc1ncn(Cc2c(Cl)ccnc2F)c2ncnc1-2` [3-[(4-chloro-2-fluoro-3-pyridyl)methyl]-3-hydropurine-6-ylamine] and `Clc1cccc(Cl)c1Cn1cnc(NCc2ccccc2)c2ncnc1-2` [Benzyl-[3-(2,6-dichloro-benzyl)-3H-purin-6-yl]-amine] fall in the same range of IC50: 1 to 20 µM for the first, 1 to 20 µM for the second.

`Nc1ncn(Cc2c(Cl)cccc2Cl)c2nc(-c3ccncc3)nc1-2` [3-[(2,6-Dichlorophenyl)methyl]-8-(4-pyridyl)-3-hydropurine-6-ylamine] and `Cc1cccc(-c2nc3c(N)ncn(Cc4c(Cl)cccc4Cl)c-3n2)c1` [3-[(2,6-Dichlorophenyl)methyl]-8-(3-methylphenyl)-3-hydropurine-6-ylamine] cannot be ordered by IC50: ≤ 1 µM for the first, ≤ 1 µM for the second.

`Nc1ncn(Cc2cscn2)c2ncnc1-2` [3-Thiazol-4-ylmethyl-3H-purin-6-ylaniine] and `Nc1ncn(Cc2c(F)cccc2F)c2ncnc1-2` cannot be ordered by IC50: ≥ 20 µM for the first, 1 to 20 µM for the second.

`Nc1ncn(Cc2c(Cl)cccc2Cl)c2nc(C3CCS(=O)(=O)CC3)nc1-2` [4-{6-Amino-3-[(2,6-dichlorophenyl)methyl]-3-hydropurin-8-yl}thiane-1,1-dione] and `Nc1ncn(Cc2c(Cl)cccc2Cl)c2nc(-c3ccco3)nc1-2` [3-[(2,6-Dichlorophenyl)methyl]-8-(2-furyl)-3-hydropurine-6-ylamine] cannot be ordered by IC50: ≤ 1 µM for the first, ≤ 1 µM for the second.

`Nc1ncn(Cc2c(Br)cccc2Br)c2ncnc1-2` [3-(2,6-dibromobenzyl)-3H-purin-6-amine] and `Nc1ncn(Cc2c(Cl)cccc2Cl)c2nc(-c3ccc(F)c(F)c3)nc1-2` [3-[(2,6-dichlorophenyl)methyl]-8-(3,4-difluorophenyl)-3-hydropurine-6-ylamine] cannot be ordered by IC50: ≤ 1 µM for the first, ≤ 1 µM for the second.

`Nc1ncn(Cc2c(Cl)cccc2Cl)c2nc(-c3c(F)cccc3F)nc1-2` [3-[(2,6-dichlorophenyl)methyl]-8-(2,6-difluorophenyl)-3-hydropurine-6-ylamine] and `OCCNc1ncn(Cc2c(Cl)cccc2Cl)c2ncnc1-2` [2-[3-(2,6-Dichloro-benzyl)-3H-purin-6-ylamino]-ethanol] cannot be ordered by IC50: ≤ 1 µM for the first, 1 to 20 µM for the second.

`CC(=O)Nc1ncn(Cc2c(Cl)cccc2Cl)c2ncnc1-2` [N-[3-(2,6-Dichloro-benzyl)-3 H-purin-6-yl]-acetamide] and `Nc1ncn(Cc2cccnc2)c2ncnc1-2` [3-Pyridin-3-ylmethyl-3H-purin-6-ylamine] fall in the same range of IC50: 1 to 20 µM for the first, 1 to 20 µM for the second.

With “8-[(1E)-2-(4-fluorophenyl)vinyl]-3-[(2,6-dichlorophenyl)methyl]-3-hydropurine-6-ylamine” the IC50 was ≤ 1 µM.

Reference: patent publication US20200338084A1, “INHIBITORS OF LOW MOLECULAR WEIGHT PROTEIN TYROSINE PHOSPHATASE (LMPTP) AND USES THEREOF” (Sanford Burnham Prebys Medical Discovery Institute, priority 2018, published 2020)
